Results published in patent US20260083703A1, “INDOLINE DERIVATIVES AS SEROTONERGIC AGENTS USEFUL FOR THE TREATMENT OF DISORDERS RELATED THERETO” (MINDSET PHARMA INC., priority 2022, published 2026).
Several values for one entry are separate records, joined by “and”; a condition that tells them apart may be missing. Identical values can stand only once.

Tests used:
[1] = system: Male, C57BL/6J mice; experiment: Mouse head twitch; type: in vivo
Procedure: The effect of different doses of representative compounds of Formula I are evaluated on head-twitch response (HTR) and other behavioural responses as behavior-based models of psychedelic activity.
Male, C57BL/6J mice (body weight range 20-30 g) were dosed with the appropriate dose of test article, and following a 1-minute pre-treatment time, placed in individual observation chambers. Animals were visually assessed for the incidence head twitches continuously over a 1 hr period. Head twitches were defined as a rapid jerk of the head which was not elicited by an external tactile stimulus (Come and Pickering, Psychopharmacologia, 1967, 11(1): 65-78). Each head twitch was individually counted by a trained observer, and the data expressed as the mean±SEM of 6-10 mice per group. Mice were used in a single experiment only.

[2] = Liver microsomes stability, human; conditions: human
[3] = molecular target: T1, human 5-HT2A (h5-HT2A) receptor (Homo sapiens, UniProt P28223); experiment: FLIPR assay, human 5-HT2A, agonist mode; type: cell-based
T1 construct: expressed in transfected cells; grown under G418 and hygromycin B selection
T1 sequence (P28223 whole entry): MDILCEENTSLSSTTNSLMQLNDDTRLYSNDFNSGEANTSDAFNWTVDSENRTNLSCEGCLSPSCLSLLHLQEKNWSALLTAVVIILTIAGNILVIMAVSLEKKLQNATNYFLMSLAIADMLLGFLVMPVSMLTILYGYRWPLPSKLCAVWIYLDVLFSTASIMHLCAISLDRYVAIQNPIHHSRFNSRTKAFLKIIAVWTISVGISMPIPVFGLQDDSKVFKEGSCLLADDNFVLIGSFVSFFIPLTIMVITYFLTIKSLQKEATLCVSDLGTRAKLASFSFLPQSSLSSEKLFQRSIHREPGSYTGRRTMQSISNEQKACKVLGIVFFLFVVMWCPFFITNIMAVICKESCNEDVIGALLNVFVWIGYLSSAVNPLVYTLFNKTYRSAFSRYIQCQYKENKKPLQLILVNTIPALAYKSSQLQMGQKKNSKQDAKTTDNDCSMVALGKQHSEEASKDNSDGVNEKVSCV
Procedure: I. Assessment of the Effect of Exemplary Compounds of Formula I Targeting on Human 5-HT2A (h5-HT2A) Receptor Under Agonist Mode:
I.c. Experimental Methods and Procedures: • 1. Cells were cultured in cell culture medium (DMEM containing 10% FBS, 1×penicillin-streptomycin 300 μg/ml G418 and 100 μg/ml hygromycin B) at 37° C., 5% (v/v) CO2. • 2. One day before the assays, the cells were detached using TrypLE™ Express and cells were counted using cell counter. Only cells with >85% viability were used for the assay. • 3. 20000 cells/well were seeded in 30 μl/well culture medium to a 384-well cell plate and cells were incubated overnight at 37° C., 5% (v/v) CO2. • 4. On the assay day, 2×dye solution was prepared following the manual of the FLIPR® Calcium 6 Assay Kit: i. The dye was diluted with assay buffer (20 mM HEPES in 1×HBSS, PH7.4); ii. Probenecid was added to the final concentration of 5 mM; iii. Vortex vigorously for 1-2 minutes. • 5. Medium was removed from cell plate by flicking the cell plate on towel papers. • 6. 10 μl of assay buffer and 10 μl of 2×dye solution was added to each well of the cell plate. • 7. The cell plate was placed on plate shaker, the plate was agitated at 600 rpm for 2 minutes. The plate was incubated at 37° C. for 2 hours followed by additional 15-minute incubation at 25° C. • 8. 3×compound in assay buffer was prepared: a. Reference compounds were diluted to required concentration with DMSO. The compounds were added to a 384-well compound plate; b. Serial dilutions were performed; c. 10 mM test compounds were added to the compound plate, and 3-fold serial dilutions were performed. d. Transfer 60 nl/well of compounds from source plate to a 384-well compound plate (Corning, 3657) by using an Echo; e. Add 20 μl/well assay buffer to the compound plate; f. Mix the plate on plate shaker for 2 mins; • 9. The cell plate, compound plate and tips were put into FLIPR, 10 μl of 3× compound was transferred to the cell plate per well with FLIPR.
• i. The normalized fluorescence reading (RFU) was calculated as shown below, where Fmax and Fmin stand for maximum and minimum of calcium signal during defined time window: RFU=Fmax−Fmin. • ii. Calculate the percentage activation using following equation:
[formula] • Iii. Calculate EC50 by fitting % activation against log of compound concentrations with Hill equation using XLfit.

[4] = Liver microsomes stability, mouse
[5] = Liver microsomes stability, rat

COc1ccc2c(c1)C(C[C@H]1CCCN1C)CN2 (stereo partly drawn) [(R)-I-54]
head twitch response (mean head twitches over 1 hr) ([1]; 1 mg/kg SC): 0.7
head twitch response (mean head twitches over 1 hr) ([1]; 3 mg/kg SC): 0.2
head twitch response (mean head twitches over 1 hr) ([1]; 10 mg/kg SC): 1.2
head twitch response (mean head twitches over 1 hr) ([1]; 30 mg/kg SC): 1.8
head twitch response (mean head twitches over 1 hr) ([1]; 60 mg/kg SC): 0.8
dose of peak head twitch response ([1]; SC): 30 mg/kg
head twitch response over the dose range tested ([1]; SC, psilocybin 0.1-10, 5-MeO DMT 1-30, (R)-I-54 1-60 mg/kg): only a modest head twitch response
Predicted hepatic CL [2]: 13.52 mL/min/kg
Remaining Percentage ([2]; With NADPH, 0 min): 100.00%
Remaining Percentage ([2]; With NADPH, 30 min): 66.49%
Remaining Percentage ([2]; With NADPH, 60 min): 39.38%
Remaining Percentage ([2]; Without NADPH, 0 min): 100.00%
Remaining Percentage ([2]; Without NADPH, 30 min): 116.22%
Remaining Percentage ([2]; Without NADPH, 60 min): 93.51%
CLint scaled at 2 μM ([2]; pooled human liver microsomes): 39 mL/min/kg
half-life at 2 μM ([2]; pooled human liver microsomes): 44.6 min
microsomal CLint at 2 μM ([2]; pooled human liver microsomes): 31.1 µL/min/mg
EC50 [3]: 17 nM and 25 nM
5-HT2A (FLIPR) RFU@10 μM ([3]; 10 μM): 993 RFU and 990 RFU
Predicted hepatic CL [4]: 70.39 mL/min/kg
Remaining Percentage ([4]; With NADPH, 0 min): 100.00%
Remaining Percentage ([4]; With NADPH, 30 min): 34.74%
Remaining Percentage ([4]; With NADPH, 60 min): 10.91%
Remaining Percentage ([4]; Without NADPH, 0 min): 100.00%
Remaining Percentage ([4]; Without NADPH, 30 min): 98.80%
Remaining Percentage ([4]; Without NADPH, 60 min): 91.62%
CLint scaled at 2 μM ([4]; male, microsomes): 323 mL/min/kg
half-life at 2 μM ([4]; male, microsomes): 18.8 min
microsomal CLint at 2 μM ([4]; male, microsomes): 73.8 µL/min/mg
Predicted hepatic CL [5]: 49.19 mL/min/kg
Remaining Percentage ([5]; With NADPH, 0 min): 100.00%
Remaining Percentage ([5]; With NADPH, 30 min): 2.28%
Remaining Percentage ([5]; With NADPH, 60 min): 0.48%
Remaining Percentage ([5]; Without NADPH, 0 min): 100.00%
Remaining Percentage ([5]; Without NADPH, 30 min): 103.93%
Remaining Percentage ([5]; Without NADPH, 60 min): 97.75%
CLint scaled at 2 μM ([5]; rat liver microsomes): 452 mL/min/kg
half-life at 2 μM ([5]; rat liver microsomes): 5.5 min
microsomal CLint at 2 μM ([5]; rat liver microsomes): 252 µL/min/mg
